This passage reports Emax results from paper PMC5908784, “Extracellular loops 2 and 3 of the calcitonin receptor selectively modify agonist binding and efficacy” (Biochemical Pharmacology, 2018).

Where a chain is given by its changes, count along the chain named.

Experiment in all cases: cAMP accumulation
Holding throughout (format): cell-based
Holding throughout (details): cAMP maximal response, mean ± S.E.M., SEM

One assay deals with T1, hCTR L368A (Homo sapiens, UniProt P30988, L368A).
T1 construct: c-Myc (N); expressed in transfected cells
T1 sequence (P30988 25-474 L368A): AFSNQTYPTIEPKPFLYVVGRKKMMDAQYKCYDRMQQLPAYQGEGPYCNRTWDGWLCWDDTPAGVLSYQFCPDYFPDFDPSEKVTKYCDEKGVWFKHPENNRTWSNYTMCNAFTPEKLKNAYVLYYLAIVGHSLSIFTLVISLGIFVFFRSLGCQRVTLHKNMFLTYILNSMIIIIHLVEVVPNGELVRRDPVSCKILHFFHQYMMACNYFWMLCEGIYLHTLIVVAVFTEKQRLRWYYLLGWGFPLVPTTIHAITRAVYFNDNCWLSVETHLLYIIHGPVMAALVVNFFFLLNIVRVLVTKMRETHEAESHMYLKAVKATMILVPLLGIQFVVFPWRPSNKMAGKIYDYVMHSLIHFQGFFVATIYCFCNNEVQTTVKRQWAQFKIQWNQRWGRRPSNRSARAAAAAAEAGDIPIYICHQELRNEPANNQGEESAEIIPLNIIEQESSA
The method, boiled down: (§1)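 Read-out: cAMP accumulated over 30 min of graded ligand exposure in IBMX-containing medium, expressed relative to 100 μM forskolin. Potency (EC50) and maximal effect (Emax) derive from 3-parameter logistic concentration-response curves.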

A further assay concerns the target T2, hCTR Y374A (Homo sapiens, UniProt P30988, Y374A).
T2 construct: c-Myc (N); expressed in transfected cells
T2 sequence (P30988 25-474 Y374A): T1 sequence (P30988 25-474 L368A) with A344L, Y350A
The method, boiled down:
as §1

For another assay, the target named is T3, hCTR G369A (Homo sapiens, UniProt P30988, G369A).
T3 construct: c-Myc (N); expressed in transfected cells
T3 sequence (P30988 25-474 G369A): T1 sequence (P30988 25-474 L368A) with A344L, G345A
The method, boiled down:
as §1

The target in another assay is T4, hCTR L297A (Homo sapiens, UniProt P30988, L297A).
T4 construct: c-Myc (N); expressed in transfected cells
T4 sequence (P30988 25-474 L297A): T1 sequence (P30988 25-474 L368A) with L273A, A344L
The method, boiled down: as §1

A further assay addresses T5, hCTR I371A (Homo sapiens, UniProt P30988, I371A).
T5 construct: c-Myc (N); expressed in transfected cells
T5 sequence (P30988 25-474 I371A): T1 sequence (P30988 25-474 L368A) with A344L, I347A
The essentials:
as §1

In the case of `CC[C@H](C)[C@H](NC(=O)[C@H](C)NC(=O)[C@@H](NC(=O)[C@H](CCC(N)=O)NC(=O)[C@@H]1CCCN1C(=O)[C@H](Cc1ccccc1)NC(=O)[C@@H](NC(=O)[C@H](Cc1c[nH]cn1)NC(=O)[C@H](Cc1ccccc1)NC(=O)[C@H](CCCCN)NC(=O)[C@H](CC(N)=O)NC(=O)[C@H](Cc1ccccc1)NC(=O)[C@H](CC(=O)O)NC(=O)[C@H](CCC(N)=O)NC(=O)[C@@H](NC(=O)[C@H](Cc1ccc(O)cc1)NC(=O)[C@@H](NC(=O)CNC(=O)[C@H](CC(C)C)NC(=O)[C@H](CCSC)NC(=O)[C@@H]1CSSC[C@H](N)C(=O)NCC(=O)N[C@@H](CC(N)=O)C(=O)N[C@@H](CC(C)C)C(=O)N[C@@H](CO)C(=O)N[C@@H]([C@@H](C)O)C(=O)N1)[C@@H](C)O)[C@@H](C)O)[C@@H](C)O)[C@@H](C)O)C(=O)NCC(=O)N[C@H](C(=O)NCC(=O)N[C@@H](C)C(=O)N1CCC[C@H]1C(N)=O)C(C)C` [hCT], the Emax on hCTR L368A was 70 ± 4%; at hCTR Y374A, 83.2 ± 5%; on hCTR G369A, 129 ± 9%; on hCTR L297A it was 91 ± 6%; at hCTR I371A, 24 ± 2.7%.
